Experimental data: patent publication US20260248922A1, “TREATMENT OF SIGNS, SYMPTOMS AND/OR COMPLICATIONS OF VIRAL, BACTERIAL, PROTOZOAL, AND/OR FUNGAL INFECTIONS BY HIGH PENETRATION PRODRUGS” (priority 2022, published 2026)
Read-outs that look alike come from different tables or passages of the source.

Assays:
[1] = rabbit
H1N1 virus [2] = assay: H1N1 virus infection mouse model (Example 66); assay type: in vivo, mice; conditions: transdermal once a day
Description: (§1) A total of seventy mice (7 groups, 10/group) were used in this study. At day 0, mice were anesthetized with isoflurane and held in a dorsal recumbent position for administration of 0.1×TCID50/mouse virus (new batch) by internasal instillation, from day 2 post challenge, mice were received a single dose of different concentrations of test article or vehicle control once a day up to 15th day with dose initiation on day 2 post challenge. Group 1 served as an infected control group and was treated with vehicle (35% ethanol). […] Mice were observed following viral challenge for clinical signs of illness including body weights, health score, morbidity and mortality.
Lung lesions and peribronchiolitis of all deceased and surviving animals were characterized (Table 9).

LPS-induced fever = assay: Antipyretic activity, fever induced by LPS in rats; assay type: in vivo, Sprague Dawley rats
Description: The body temperature of rats was taken at 0 (2 hours after the challenge), 90 min, 180 min, and 270 min after the administration of the test compounds.

H1N1 virus [3] = assay: H1N1 virus infection mouse model (Example 67); assay type: in vivo, mice; conditions: transdermal once a day
Description: A total of seventy mice (7 groups, 10/group) were used in this study. At day 0, mice were anesthetized with isoflurane and held in a dorsal recumbent position for administration of 0.1×TCID50/mouse virus (new batch) by internasal instillation, from day 2 post challenge, mice were received a single dose of different concentrations of test article or vehicle control once a day up to 15th day with dose initiation on day 2 post challenge. Group 1 served as an infected control group and was treated with vehicle (35% ethanol). 7% of (pyrrolidin-2-yl)methyl 2-[(2,3-dimethylphenyl)amino]benzoate hydrochloride in 35% ethanol (low dose: 25.0 mg/kg, group 2, mid dose: 50.1 mg/kg, group 3, and high dose: 100.1 mg/kg, group 4) and 7% of (pyrrolidin-2-yl)methyl α-methyl-4-(2-thienylcarbonyl)benzeneacetate hydrochloride in 35% ethanol (low dose: 24.9 mg/kg, group 5, mid dose: 49.8 mg/kg, group 6, and high dose: 99.6 mg/kg, group 7) and vehicle (35% ethanol) were given by transdermal on the back of animal in an area of 2 cm×5 cm, 1.5 cm×3.5 cm, or 1 cm×2.5 cm for high, middle or low dose. Mice were observed following viral challenge for clinical signs of illness including body weights, health score, morbidity and mortality.
Lung lesions and peribronchiolitis of all deceased and surviving animals were characterized (Table 11).

H1N1 virus [4] = assay: H1N1 virus infection mouse model (Example 68); assay type: in vivo, mice; conditions: transdermal once a day
Description: A total of seventy mice (7 groups, 10/group) were used in this study. At day 0, mice were anesthetized with isoflurane and held in a dorsal recumbent position for administration of 0.1×TCID50/mouse virus (new batch) by internasal instillation, from day 2 post challenge, mice were received a single dose of different concentrations of test article or vehicle control once a day up to 15th day with dose initiation on day 2 post challenge. Group 1 served as an infected control group and was treated with vehicle (35% ethanol). 7% (pyrrolidin-2-yl)methyl 5-(2,4-difluorophenyl) salicylate hydrochloride in 35% ethanol (low dose: 25.0 mg/kg, group 2, mid dose: 49.9 mg/kg, group 3, and high dose: 99.8 mg/kg, group 4) and 7% (pyrrolidin-2-yl)methyl 5-(2,4-difluorophenyl) acetylsalicylate hydrochloride in 35% ethanol (low dose: 24.7 mg/kg, group 5, mid dose: 49.4 mg/kg, group 6, and high dose: 98.7 mg/kg, group 7) and vehicle (35% ethanol) were given by transdermal on the back of animal in an area of 2 cm×5 cm, 1.5 cm×3.5 cm, or 1 cm×2.5 cm for high, middle or low dose. Mice were observed following viral challenge for clinical signs of illness including body weights, health score, morbidity and mortality.
Lung lesions and peribronchiolitis of all deceased and surviving animals were characterized (Table 13).

[5] = test system: cecal slurry-induced sepsis; assay: Cecal slurry-induced sepsis mouse model (Example 75); assay type: in vivo, C57/BL6 mice; conditions: transdermal once a day
Description: as §1, with “seventy C57/BL6” for “seventy”, “of 10 mg/mouse cecal slurry” for “of 0.1×TCID50/mouse virus (new batch)”, “by intraperitoneal (IP) injections,” for “by internasal instillation,”, “from hour” for “from day”, “on hour” for “on day”

paw edema = assay: Antiinflammatory activity, carrageenan paw edema in rats; assay type: in vivo, Wistar Rats; conditions: topical, 100 mg/kg

Row | SMILES | The cumulative amount of test compounds ([1]; 1 h) [mg] | The cumulative amount of test compounds ([1]; 2 h) [mg] | The cumulative amount of test compounds ([1]; 4 h) [mg] | The cumulative amount of test compounds ([1]; 8 h) [mg] | other results
1 | CCN(CC)CCOC(=O)CC1(CS[C@H](CCc2ccccc2C(C)(C)O)c2cccc(C=Cc3ccc4ccc(Cl)cc4n3)c2)CC1.Cl [Example 3] | 0.36 | 0.78 | 1.77 | 3.87 | 
2 | Cl.O=C(OCC1CCCN1)C(c1ccc(OCc2ccc3ccccc3n2)cc1)C1CCCC1 (centres unmarked) [Example 6, (pyrrolidin-2-yl)methyl 2-cyclopentyl-2-[4-(quinolin-2-ylmethoxy)phenyl]acetate hydrochloride] | 0.52 | 1.03 | 2.10 | 4.19 | 
3 | CN(C)C(=O)CCSC(SCCC(=O)OCC1CCCN1)c1cccc(/C=C/c2ccc3ccc(Cl)cc3n2)c1.Cl (centres unmarked) [Example 7, (pyrrolidin-2-yl)methyl 3-[[3-[(E)-2-(7-chloroquinolin-2-yl)ethenyl]phenyl]-[3-(dimethylamino)-3-oxopropyl]sulfanylmethyl]sulfanylpropanoate hydrochloride] | 0.46 | 1.01 | 2.09 | 4.29 | 
4 | CC(=O)O.CCN(CC)CCOC(=O)CC1=C(C)/C(=C/c2ccc([S+](C)[O-])cc2)c2ccc(F)cc21 (centres unmarked) [Example 8] |  |  |  |  | survival (H1N1 virus [2]; group 5, low dose 25.5 mg/kg): 60%; survival (H1N1 virus [2]; group 6, mid dose 50.9 mg/kg): 70%; survival (H1N1 virus [2]; group 7, high dose 101.9 mg/kg): 50%
5 | CC(C(=O)OCC1CCCN1)c1ccc(-c2ccccc2)c(F)c1.Cl (centres unmarked) [Example 15, (pyrrolidin-2-yl)methyl 2-(2-fluorobiphenyl-4-yl) propanoate hydrochloride] |  |  |  |  | survival (H1N1 virus [2]; group 2, low dose 25.0 mg/kg): 40%; survival (H1N1 virus [2]; group 3, mid dose 50.0 mg/kg): 50%; survival (H1N1 virus [2]; group 4, high dose 100.0 mg/kg): 60%; body temperature (Mean) (LPS-induced fever; T = 0 min (2 hours after LPS challenge), transdermal, 20 mg/kg): 38.30; body temperature (Mean) (LPS-induced fever; T = 90 min, transdermal, 20 mg/kg): 37.37; body temperature (Mean) (LPS-induced fever; T = 180 min, transdermal, 20 mg/kg): 36.78; body temperature (Mean) (LPS-induced fever; T = 270 min, transdermal, 20 mg/kg): 36.65
6 | Cc1cccc(Nc2ccccc2C(=O)OCC2CCCN2)c1C.Cl (centres unmarked) [Example 17, (pyrrolidin-2-yl)methyl 2-[(2,3-dimethylphenyl)amino]benzoate hydrochloride] |  |  |  |  | survival (H1N1 virus [3]; group 2, low dose 25.0 mg/kg): 30%; survival (H1N1 virus [3]; group 3, mid dose 50.1 mg/kg): 50%; survival (H1N1 virus [3]; group 4, high dose 100.1 mg/kg): 50%
7 | CCCc1c(OCCCS(=O)(=O)c2ccc(C(=O)CCC(=O)OCC3CCCN3)cc2)ccc(C(C)=O)c1O.Cl (centres unmarked) [Example 19] | 0.50 | 1.02 | 2.18 | 4.48 | 
8 | Cl.O=C(OCC1CCCN1)c1cc(-c2ccc(F)cc2F)ccc1O (centres unmarked) [Example 27, (pyrrolidin-2-yl)methyl 5-(2,4-difluorophenyl) salicylate hydrochloride] |  |  |  |  | survival (H1N1 virus [4]; group 2, low dose 25.0 mg/kg): 30%; survival (H1N1 virus [4]; group 3, mid dose 49.9 mg/kg): 50%; survival (H1N1 virus [4]; group 4, high dose 99.8 mg/kg): 60%
9 | CC(=O)Oc1ccc(-c2ccc(F)cc2F)cc1C(=O)OCC1CCCN1.Cl (centres unmarked) [Example 28, (pyrrolidin-2-yl)methyl 5-(2,4-difluorophenyl) acetylsalicylate hydrochloride] |  |  |  |  | survival (H1N1 virus [4]; group 5, low dose 24.7 mg/kg): 40%; survival (H1N1 virus [4]; group 6, mid dose 49.4 mg/kg): 60%; survival (H1N1 virus [4]; group 7, high dose 98.7 mg/kg): 70%
10 | CC(C(=O)OCC1CCCN1)c1cccc(Oc2ccccc2)c1.Cl (centres unmarked) [Example 30, (pyrrolidin-2-yl)methyl 2-(3-phenoxyphenyl) propionate hydrochloride] |  |  |  |  | survival ([5]; group 2, low dose 25.1 mg/kg): 10%; survival ([5]; group 3, mid dose 50.2 mg/kg): 30%; survival ([5]; group 4, high dose 100.3 mg/kg): 40%
11 | CC(C(=O)OCC1CCCN1)c1ccc(C(=O)c2cccs2)cc1.Cl (stereo not drawn) [Example 33, (pyrrolidin-2-yl)methyl α-methyl-4-(2-thienylcarbonyl)benzeneacetate hydrochloride] |  |  |  |  | survival (H1N1 virus [3]; group 5, low dose 24.9 mg/kg): 60%; survival (H1N1 virus [3]; group 6, mid dose 49.8 mg/kg): 50%; survival (H1N1 virus [3]; group 7, high dose 99.6 mg/kg): 40%
12 | CC(C)Cc1ccc(C(C)C(=O)O)cc1 (centres unmarked) [Ibuprofen, reference compound] |  |  |  |  | anti-inflammatory activity (in words) (paw edema): did not show any anti-inflammatory activity; body temperature (Mean) (LPS-induced fever; T = 0 min (2 hours after LPS challenge), group C, topical, 100 mg/kg, 7% in 70% ethanol): 38.18; body temperature (Mean) (LPS-induced fever; T = 90 min, group B, oral, 100 mg/kg): 38.01; body temperature (Mean) (LPS-induced fever; T = 90 min, group C, topical, 100 mg/kg, 7% in 70% ethanol): 38.26; body temperature (Mean) (LPS-induced fever; T = 180 min, group B, oral, 100 mg/kg): 37.34; body temperature (Mean) (LPS-induced fever; T = 180 min, group C, topical, 100 mg/kg, 7% in 70% ethanol): 38.27; body temperature (Mean) (LPS-induced fever; T = 270 min, group B, oral, 100 mg/kg): 37.02; body temperature (Mean) (LPS-induced fever; T = 270 min, group C, topical, 100 mg/kg, 7% in 70% ethanol): 37.98; antipyretic activity (in words) (LPS-induced fever; topical, 100 mg/kg): did not show any antipyretic activity
13 | CCCc1c(OCCCS(=O)(=O)c2ccc(C(=O)CCC(=O)O)cc2)ccc(C(C)=O)c1O [Parent drug-1] | 0.000 | 0.001 | 0.001 | 0.002 | 
14 | CC(C)c1ccc2c(c1)c(SC(C)(C)C)c(CC(C)(C)C(=O)O)n2Cc1ccc(Cl)cc1 [Parent drug-2] | 0.001 | 0.001 | 0.001 | 0.003 | 
15 | CN(C)C(=O)CCS[C@H](SCCC(=O)O)c1cccc(/C=C/c2ccc3ccc(Cl)cc3n2)c1 [Parent drug-4] | 0.001 | 0.001 | 0.001 | 0.002 | 
16 | O=C(O)C(c1ccc(OCc2ccc3ccccc3n2)cc1)C1CCCC1 (centres unmarked) [Parent drug-5] | 0.001 | 0.001 | 0.001 | 0.002 | 
17 | CC(c1cc2ccccc2s1)N(O)C(N)=O (centres unmarked) [Parent drug-6] | 0.001 | 0.001 | 0.001 | 0.003 | 
18 | O=C(O)Cc1ccccc1Nc1c(Cl)cccc1Cl [Parent drug-8] | 0.000 | 0.001 | 0.002 | 0.003 | 
